Experimental data taken from patent US11013249B2, “Compositions for controlled release of volatile compounds” (University of Guelph, priority 2016, dated 2021).
In brackets after ≈: the same amount, converted by molar mass. Several values for one entry are separate records, joined by “and”; a condition that tells them apart may be missing. Equal entries are not always repeated. Where two headings read alike, the source gives them in different places.

Tests used:
[1] = test system: P. Fluorescens; assay: Inhibitory effects of AITC, diacetyl and cinnamaldehyde vapour; type: cell-based, Pseudomonas fluorescens P33; conditions: 25° C.; for effective concentration against P. fluorescens: vapour in one-liter jar
Protocol: (§1) P. fluorescens was selected as a model spoilage bacteria, while mould and yeast were isolated from spoiled mung bean sprouts with bacteria excluded by cultivating in potato dextrose broth (PDB) (Sigma, Oakville, ON, Canada) at pH 5.6±0.2. Yeast and P. fluorescens stocks were cultivated in PDB and trypticase soy broth (TSB) (Bacto, BD, Sparks, USA), respectively, at 30° C. for 24 h and diluted with sterile saline solution (NaCl, 8.5 g/L water) to a concentration of 10^6 CFU/mL. An aliquot of 50 μL of the prepared yeast or bacteria suspension was spread on potato dextrose agar (PDA) (Difco, BD, Sparks, USA) or trypticase soy agar (TSA) (Bacto, BD, Sparks, USA), respectively, in 5 cm diameter petri dishes (Fisher Scientific, Ottawa, ON, Canada). Mycelium of mould was inoculated as one spot at the center of the PDA dishes. Two freshly inoculated petri dishes of same microorganism, with their lids removed, were placed in a one-liter glass jar. […] The growth of the microorganisms was monitored by the colony formation for 3 days.

[2] = Release of diacetyl and AITC vapours from PEG blends into jar headspace (automatic headspace sampling, GC); type: physicochemical; conditions: from 4:1 PEG400:PEG10K
Protocol: PEG400 and PEG10K were blended at 1:4, 2:3, 3:2 and 4:1 (w/w) ratios. All PEG blends (20±1 g) were heated to 90° C. in a 20 mL glass vial for 20 min to ensure the polymers were melted and thoroughly mixed with the aid of a magnetic stir bar. […] The vials were capped, kept in a 75° C. oven and continuously being stirred with the magnetic stir bar for 15 min. The molten mixtures were injected into a mould fabricated from glass (2 cm×1.5 cm×0.1 cm) and allowed to set. One face of the mould was lined with aluminum tape (adhesive side facing away from PEG), which acted as a baking material for the solidified PEG. Upon solidification, diacetyl/AITC impregnated PEG sheeting was formed.
With the aid of a controller (SRI Instruments Inc., Las Vegas, Nev., USA), the headspace air in the glass jar was sampled automatically by means of a vacuum pump and two stream selection valves (Model EMTCA-CE, VICI Valco Instruments Co. Inc., Houston, Texax, USA), and injected into a gas chromatograph equipped with flame ionization detector (GC 6890, Agilent Technologies Inc., Santa Clara, Calif., USA.). Both the detector and oven temperatures were set at 150° C. The flow rates of the carrier gas (N2), compressed air and hydrogen were 30 mL/min, 200 mL/min and 30 mL/min, respectively. Retention time and peak area were analyzed by using chromatographic software (Peak Simple 393-32 bit, SRI Instruments, Torrance, Calif., USA). After each sampling, an equal amount of dry air was injected back into the jar to maintain the interior pressure at one atmosphere.
Diacetyl or AITC release profiles were generated by plotting Mn versus time.
The release profiles of the antimicrobial compounds were fitted in a model which combines first order kinetics and zero order kinetics: C=Ce×(1−e^−kt)+αt (Eq. 3) where C is the compound concentration at time t; Ce is the equilibrium concentration for diffusion; k is the diffusion rate constant; α is the rate of zero order kinetics. Models are fitted to the data before reaching the equilibrium.

[3] = cited from earlier work; for vapor pressure (volatility): 20° C.
[4] = test system: Mould; assay: Inhibitory effects of AITC, diacetyl and cinnamaldehyde vapour; type: cell-based, mould isolated from mung bean sprouts; conditions: 25° C.; for concentration that inhibited the growth of mould for three days: vapour in one-liter jar
Protocol: as §1

[5] = test system: Yeast; assay: as above; type: cell-based, yeast isolated from mung bean sprouts; conditions: for Yeast day1, visual colony number / Yeast day2, visual colony number / Yeast day3, visual colony number / effective concentration against yeast: 25° C.; for MIC: read-out: minimum inhibition concentration (MIC); for effective concentration against yeast: vapour in one-liter jar
Protocol: as §1

[6] = cited from earlier work

In the case of `C=CCN=C=S` [AITC, Allyl isothiocyanate], the “P. Fluorescens day1, visual colony number” value (shortened to “P. Fluorescens day1”) ([1]; Amount 0.1 mg in one-liter jar) is reported as “++ (15-50)”, the “P. Fluorescens day2, visual colony number” value (“P. Fluorescens day2” for short) ([1]; Amount 0.1 mg in one-liter jar) is reported as “++ (15-50)” and the “P. Fluorescens day1” value ([1]; Amount 0.5 mg in one-liter jar) is reported as “+ (less than 15)”. For the same compound, the “P. Fluorescens day2” value ([1]; Amount 0.5 mg in one-liter jar) was “+ (less than 15)”, the “effective concentration against P. fluorescens” value [1] was 1 mg/L and the Ce ([2]; 0 μL water, 5° C.) was 0.0212 mg/L. It also gave a k ([2]; 0 μL water, 5° C.) of 0.0149 h⁻¹, a α ([2]; 0 μL water, 5° C.) of 3.39e-06 h⁻¹ and a Ce ([2]; 0 μL water, 25° C.) of 0.0791 mg/L. The k ([2]; 0 μL water, 25° C.) was 0.016 h⁻¹ and 0.01604 h⁻¹, the α ([2]; 0 μL water, 25° C.) was 1.94e-05 h⁻¹ and the “maximum released after 42 h” value ([2]; 5° C.) was 0.14 mg. It also gave a Ce ([2]; 10 μL water, 5° C.) of 0.0245 mg/L, a k ([2]; 10 μL water, 5° C.) of 0.01509 h⁻¹ and a α ([2]; 10 μL water, 5° C.) of 3.63e-06 h⁻¹. The Ce ([2]; 10 μL water, 25° C.) was 0.1012 mg/L, the k ([2]; 10 μL water, 25° C.) was 0.01169 h⁻¹ and the α ([2]; 10 μL water, 25° C.) was 1.76e-05 h⁻¹. For the same compound, the “maximum released after 42 h” value ([2]; 25° C.) was 0.47 mg, the “maximum release within 42 h” value ([2]; 25° C., 10 μL water) was 0.15 mg and the “maximum release within 42 h” value ([2]; 25° C., 100 μL water) was 0.18 mg. For the same compound, the “maximum release within 42 h” value ([2]; 25° C., 1000 μL water) was 0.48 mg, the “maximum release within 42 h” value ([2]; 25° C., dry condition) was 0.13 mg and the Ce ([2]; 100 μL water, 5° C.) was 0.0353 mg/L. The k ([2]; 100 μL water, 5° C.) was 0.01022 h⁻¹, the α ([2]; 100 μL water, 5° C.) was 1.09e-05 h⁻¹ and the Ce ([2]; 100 μL water, 25° C.) was 0.1523 mg/L. For the same compound, the k ([2]; 100 μL water, 25° C.) was 0.00896 h⁻¹, the α ([2]; 100 μL water, 25° C.) was 1.25e-05 h⁻¹ and the Ce ([2]; 1000 μL water, 5° C.) was 0.0454 mg/L. It also gave a k ([2]; 1000 μL water, 5° C.) of 0.00564 h⁻¹, a α ([2]; 1000 μL water, 5° C.) of 3.75e-05 h⁻¹ and a Ce ([2]; 1000 μL water, 25° C.) of 0.1365 mg/L. For the same compound, the k ([2]; 1000 μL water, 25° C.) was 0.009 h⁻¹ and 0.00945 h⁻¹, the “time of reaching equilibrium of release” value ([2]; 1000 μL water, 25° C.) was “around 1300 min” and the α ([2]; 1000 μL water, 25° C.) was 0.00029 h⁻¹ and 0.000291 h⁻¹. The Saturated vapor pressure ([3]; 5° C.) was roughly 140 Pa, the “vapor pressure (volatility)” value [3] was 0.49 kPa and the Saturated vapor pressure ([3]; 45° C.) was roughly 1500 Pa. The “concentration that inhibited the growth of mould for three days” value [4] was 0.1 mg/L, the “Yeast day1, visual colony number” value ([5]; Amount 0.1 mg in one-liter jar) was “+ (less than 15)” and the “Yeast day2, visual colony number” value ([5]; Amount 0.1 mg in one-liter jar) was “+ (less than 15)”. For the same compound, the “Yeast day3, visual colony number” value ([5]; Amount 0.1 mg in one-liter jar) was “+ (less than 15)”, the MIC [5] was 0.5 µg/mL (≈ 5.04 µM) and the “effective concentration against yeast” value [5] was 0.5 mg/L.
In the case of `CC(=O)C(C)=O` [Diacetyl, 2,3-butanedione], the “P. Fluorescens day1” value ([1]; Amount 1 mg in one-liter jar) is reported as “+ (less than 15)”, the “P. Fluorescens day2” value ([1]; Amount 1 mg in one-liter jar) is reported as “+ (less than 15)” and the “effective concentration against P. fluorescens” value [1] is reported as 2 mg/L. For the same compound, the Ce ([2]; 0 μL water, 5° C.) was 0.631 mg/L, the k ([2]; 0 μL water, 5° C.) was 0.00764 h⁻¹ and the α ([2]; 0 μL water, 5° C.) was 0.000149 h⁻¹. The Ce ([2]; 0 μL water, 25° C.) was 1.965 mg/L, the k ([2]; 0 μL water, 25° C.) was 0.00837 h⁻¹ and the α ([2]; 0 μL water, 25° C.) was 0.000258 h⁻¹. The “maximum released after 42 h” value ([2]; 5° C.) was 1.98 mg, the Ce ([2]; 10 μL water, 5° C.) was 1.074 mg/L and the k ([2]; 10 μL water, 5° C.) was 0.00484 h⁻¹. It also gave a α ([2]; 10 μL water, 5° C.) of 0.000236 h⁻¹, a Ce ([2]; 10 μL water, 25° C.) of 1.701 mg/L and a k ([2]; 10 μL water, 25° C.) of 0.01425 h⁻¹. For the same compound, the α ([2]; 10 μL water, 25° C.) was 0.00034 h⁻¹, the “maximum released after 42 h” value ([2]; 25° C.) was 2.85 mg and the Ce ([2]; 100 μL water, 5° C.) was 1.418 mg/L. For the same compound, the k ([2]; 100 μL water, 5° C.) was 0.00159 h⁻¹, the α ([2]; 100 μL water, 5° C.) was 0.000253 h⁻¹ and the Ce ([2]; 100 μL water, 25° C.) was 1.901 mg/L. It also gave a k ([2]; 100 μL water, 25° C.) of 0.01281 h⁻¹, a α ([2]; 100 μL water, 25° C.) of 0.000272 h⁻¹ and a Ce ([2]; 1000 μL water, 5° C.) of 0.151 mg/L. It also gave a k ([2]; 1000 μL water, 5° C.) of 0.01321 h⁻¹, a α ([2]; 1000 μL water, 5° C.) of 0.000301 h⁻¹ and a Ce ([2]; 1000 μL water, 25° C.) of 2.156 mg/L. The k ([2]; 1000 μL water, 25° C.) was 0.00728 h⁻¹, the α ([2]; 1000 μL water, 25° C.) was 0.000279 h⁻¹ and the Saturated vapor pressure ([3]; 5° C.) was roughly 2400 Pa. For the same compound, the “vapor pressure (volatility)” value [3] was 6.9 kPa, the Saturated vapor pressure ([3]; 45° C.) was roughly 20100 Pa and the “Mould day1, visual colony number” value ([4]; Amount 1 mg in one-liter jar) was “+ (less than 15)”. For the same compound, the “Mould day2, visual colony number” value ([4]; Amount 1 mg in one-liter jar) was “+ (less than 15)”, the “Mould day3, visual colony number” value ([4]; Amount 1 mg in one-liter jar) was “+ (less than 15)” and the “concentration that inhibited the growth of mould for three days” value [4] was 2 mg/L. For the same compound, the “Yeast day1, visual colony number” value ([5]; Amount 1 mg in one-liter jar) was “+ (less than 15)”, the “Yeast day2, visual colony number” value ([5]; Amount 1 mg in one-liter jar) was “+ (less than 15)” and the “Yeast day3, visual colony number” value ([5]; Amount 1 mg in one-liter jar) was “+ (less than 15)”. The “Yeast day1, visual colony number” value ([5]; Amount 2 mg in one-liter jar) was “+ (less than 15)”, the “Yeast day2, visual colony number” value ([5]; Amount 2 mg in one-liter jar) was “+ (less than 15)” and the “Yeast day3, visual colony number” value ([5]; Amount 2 mg in one-liter jar) was “+ (less than 15)”. The “Yeast day2, visual colony number” value ([5]; Amount 3 mg in one-liter jar) was “+ (less than 15)”, the “Yeast day3, visual colony number” value ([5]; Amount 3 mg in one-liter jar) was “+ (less than 15)” and the MIC ([5]; established on yeast, mould and P. fluorescens from Table 8) was 4 µg/mL (≈ 46.5 µM). For the same compound, the “effective concentration against yeast” value [5] was 4 mg/L.
For `Cc1ccc(C(C)C)cc1O` [carvacrol, 5-isopropyl-2-methylphenol], the vapor pressure ([3]; 22° C.) is given as 0.0042 kPa, the vapor pressure ([3]; 25° C.) is given as 0.0087 kPa and the “solubility in water” value [6] is given as “low solubility in water”.
